This assay deals with HIV-1 (H9IIIB or NL4-3 virus) replication in MT4-GFP cells. In words: microbe, parasite or virus in culture. The conditions noted are these: inhibition of reproductive ratio R0, 48-72 h post-infection. The class given is cell-based.
The mark [1] stands for this setting: MT4-GFP cells infected with HIV-1, 100% normal human serum, read-out: ViKinG IP (nM) with 100% NHS.
Setting [2] is: MT4-GFP cells infected with HIV-1, serum free conditions (0% NHS), read-out: ViKinG IP (nM) with 0% NHS.
Setting [3] is: Human immunodeficiency virus 1, NL43, MT4-GFP cells infected with HIV-1, 10% normal human serum, read-out: ViKinG IP (nM) with 10% NHS.
Where [4] appears, read: Human immunodeficiency virus 1, NL43, MT4-GFP cells infected with HIV-1, 100% normal human serum, read-out: ViKinG IP (nM) with 100% NHS.
The mark [5] stands for this setting: Human immunodeficiency virus 1, NL43, MT4-GFP cells infected with HIV-1, serum free conditions (0% NHS), read-out: ViKinG IP (nM) with 0% NHS.

We go through 43 compounds from US9707234B2, “Spirocyclic hetercycle compounds useful as HIV integrase inhibitors” (MERCK SHARP & DOHME CORP., priority 2013, dated 2017).

Where two headings read alike, the source gives them in different places.

As for `CN1C(=O)c2c(O)c(=O)c(C(=O)NCc3ccc(F)cc3F)cn2N(C)C12CCNC2` (single isomer, unassigned) [Compound 170], the IC50 is, setting by setting: under setting [1], 66 nM; under setting [2], 5 nM.

For the compound `CCN1C(=O)c2c(O)c(=O)c(-c3nnc(Cc4ccc(F)cc4)s3)cn2N(C)C12CCN(C(=O)OCc1ccccc1)CC2` [Compound 11], the IC50 runs as follows: under setting [3], 31 nM; under setting [4], 359 nM.

For `COCCN1C(=O)c2c(O)c(=O)c(C(=O)NCc3ccc(F)c(Cl)c3)cn2CC12CCOC2` (single isomer, unassigned) [Compound 52], the IC50 by setting is: under setting [4], 2000 nM; under setting [5], 4.8 nM.

With `CN1C(=O)c2c(O)c(=O)c(-c3nnc(Cc4ccc(F)cc4F)s3)cn2CC12CCNCC2` [Compound 93], the IC50 reads like this: under setting [3], 114 nM; under setting [5], 73.9 nM.

In the case of `COCCN1C(=O)c2c(O)c(=O)c(C(=O)NCc3ccc(F)c(F)c3F)cn2CC12CCOC2` (single isomer, unassigned) [Compound 71], the IC50 reads like this: under setting [4], 350 nM; under setting [5], 3.7 nM.

With `CCN1C(=O)c2c(O)c(=O)c(-c3nnc(Cc4ccc(F)cc4F)s3)cn2N(C)C12CCOC2` (single isomer, unassigned) [Compound 36], the IC50 runs as follows: under setting [1], 368 nM; under setting [2], 3.8 nM.

For `CC1OCCC12N(C)C(=O)c1c(O)c(=O)c(C(=O)NCc3cccc(Cl)c3F)cn1N2C` (single isomer, unassigned) [Compound 138], the IC50 amounted to 134 nM under setting [1] and 0.6 nM under setting [2].

As for `CN1C(=O)c2c(O)c(=O)c(C(=O)NCc3ccccc3F)cn2N(C)C12CCOC2` (single isomer, unassigned) [Compound 111], the IC50 was determined as 158 nM under setting [4] and 1.6 nM under setting [5].

On to `C[C@H]1CC2(CCN1C(=O)OCc1ccccc1)N(C)C(=O)c1c(O)c(=O)c(-c3nnc(Cc4ccc(F)cc4F)s3)cn1N2C` (some centres unmarked) [Compound 21], for which, under setting [3], the IC50 was found to be 141 nM.

Turning to `CN1C(=O)c2c(O)c(=O)c(C(=O)NCc3cccc(Cl)c3F)cn2CC12CCOC2` (single isomer, unassigned) [Compound 66], the IC50 is, setting by setting: under setting [1], 40 nM; under setting [2], 1.5 nM.

For `CN1C(=O)c2c(O)c(=O)c(-c3nnc(Cc4ccc(F)cc4F)s3)cn2N(C)C12CCNC(=O)CC2` (centres unmarked) [Compound 28], the IC50 stood at 122 nM under setting [3], 679 nM under setting [4] and 53.5 nM under setting [5].

Consider `CC1OCCC12N(C)C(=O)c1c(O)c(=O)c(C(=O)NCc3cccc(Cl)c3F)cn1N2C` (single isomer, unassigned) [Compound 136], for which, under setting [1], the IC50 worked out at 83 nM.

As for `CCOCCN1C(=O)c2c(O)c(=O)c(C(=O)NCc3ccc(F)cc3F)cn2CC12CCOC2` (single isomer, unassigned) [Compound 77], the IC50 by setting is: under setting [4], 96 nM; under setting [5], 3 nM.

Turning to `CN1C(=O)c2c(O)c(=O)c(-c3nnc(Cc4ccc(F)cc4F)s3)cn2N(C)C12CCOCC2` [Compound 22], the IC50 reads like this: under setting [3], 47 nM; under setting [4], 731 nM.

In the case of `C[C@@H]1CC2(CCN1C(=O)OCc1ccccc1)N(C)C(=O)c1c(O)c(=O)c(-c3nnc(Cc4ccc(F)cc4F)s3)cn1N2C` (some centres unmarked) [Compound 20], the IC50 under setting [3] amounted to 234 nM.

With `CN1C(=O)c2c(O)c(=O)c(C(=O)NCc3ccc(F)cc3)cn2CC12CCOC2` (single isomer, unassigned) [Compound 59], the IC50 by setting is: under setting [4], 56 nM; under setting [5], 1.9 nM.

For the compound `COCc1c(C(=O)NCc2ccc(F)cc2F)c(=O)c(O)c2n1CC1(CCOC1)N(C)C2=O` (centres unmarked) [Compound 48], the IC50 came out at 194 nM under setting [4] and 124 nM under setting [5].

For `CN1C(=O)c2c(O)c(=O)c(C(=O)NCc3cccc(Cl)c3F)cn2N(C)C12CCOC2` (single isomer, unassigned) [Compound 109], the IC50 reads like this: under setting [4], 229 nM; under setting [5], 0.6 nM.

As to `CC1OCCC12N(C)C(=O)c1c(O)c(=O)c(C(=O)NCc3ccc(F)cc3F)cn1N2C` (single isomer, unassigned) [Compound 131], the IC50 was determined as 0.8 nM under setting [5] and 114 nM under setting [1].

Turning to `COCCN1C(=O)c2c(O)c(=O)c(C(=O)NCc3ccc(F)cc3F)cn2N(C)C12CCOC2` (single isomer, unassigned) [Compound 121], the IC50 under setting [3] amounted to 39 nM, the IC50 under setting [5] was found to be 1.8 nM and the IC50 under setting [1] is 575 nM.

Regarding `COCCCN1C(=O)c2c(O)c(=O)c(C(=O)NCc3ccc(F)cc3F)cn2N(C)C12CCOC2` (single isomer, unassigned) [Compound 123], the IC50 is, setting by setting: under setting [5], 1.2 nM; (MT4-GFP cells infected with HIV-1, 10% normal human serum, read-out: ViKinG IP (nM) with 10% NHS) 9 nM; under setting [1], 117 nM.

With `COCN1C(=O)c2c(O)c(=O)c(C(=O)NCc3ccc(F)cc3F)cn2CC12CCOC2` (single isomer, unassigned) [Compound 75], the IC50 reads like this: under setting [5], 1.8 nM; under setting [1], 559 nM.

`CN1C(=O)c2c(O)c(=O)c(C(=O)NCc3c(F)cc(F)cc3F)cn2CC12CCOC2` (single isomer, unassigned) [Compound 63]: the IC50 turned out to be 17 nM under setting [4] and 1.9 nM under setting [5].

As to `CCOC(=O)N1CCC2(C1)N(CC)C(=O)c1c(O)c(=O)c(C(=O)NCc3ccc(F)cc3F)cn1N2C` (single isomer, unassigned) [Compound 139], the IC50 was 1.5 nM under setting [5] and 247 nM under setting [1].

Turning to `COCCCN1C(=O)c2c(O)c(=O)c(C(=O)NCc3ccc(F)cc3F)cn2CC12CCOCC2` [Compound 43], the IC50 is, setting by setting: under setting [4], 39 nM; under setting [5], 3 nM.

Consider `CN1C(=O)c2c(O)c(=O)c(C(=O)NCc3cccc(Cl)c3F)cn2N(C)C12COCC2(C)C` (single isomer, unassigned) [Compound 128], for which the IC50 was found to be 131 nM under setting [1] and 0.7 nM under setting [2].

Regarding `CC(=O)N1CCC2(CC1)N(C)C(=O)c1c(O)c(=O)c(-c3nnc(Cc4ccc(F)cc4F)s3)cn1N2C` [Compound 23], the IC50 under setting [3] came to 100 nM.

Regarding `CCN1C(=O)c2c(O)c(=O)c(C(=O)NCc3ccc(F)cc3F)cn2CC12CCCOC2` (centres unmarked) [Compound 81], the IC50 reads like this: under setting [5], 4.3 nM; under setting [1], 323 nM.

`CN1C(=O)c2c(O)c(=O)c(C(=O)NCc3ccc(F)cc3F)cn2N(CC2CC2)C12CCOC2` (single isomer, unassigned) [Compound 152]: the IC50 turned out to be 174 nM under setting [1] and 0.7 nM under setting [2].

Regarding `CN1C(=O)c2c(O)c(=O)c(C(=O)NCc3ccc(F)cc3F)cn2N(C)C12COC2` [Compound 143], the IC50 is, setting by setting: under setting [3], 7 nM; under setting [4], 78 nM; under setting [5], 1.4 nM.

Turning to `CN1C(=O)c2c(O)c(=O)c(-c3nnc(Cc4ccc(F)cc4F)s3)cn2N(C)C12CCS(=O)(=O)CC2` [Compound 27], the IC50 turned out to be 72 nM under setting [3], 712 nM under setting [4] and 21.2 nM under setting [5].

Take `O=C1NC2(CCOCC2)Cn2cc(-c3nnc(Cc4ccc(F)cc4F)s3)c(=O)c(O)c21` [Compound 98]: the IC50 reads like this: under setting [4], 2030 nM; under setting [5], 91.6 nM.

On to `CN1C(=O)c2c(O)c(=O)c(C(=O)NCc3ccc(F)cc3F)cn2N(C)C12COCC2(C)C` (single isomer, unassigned) [Compound 129], for which the IC50 is 73 nM under setting [1] and 0.6 nM under setting [2].

Consider `CCOCCN1C(=O)c2c(O)c(=O)c(C(=O)NCc3ccc(F)cc3F)cn2CC12CCOC2` (single isomer, unassigned) [Compound 78], for which the IC50 under setting [1] was 55 nM and the IC50 under setting [2] was determined as 2.3 nM.

For `CN1C(=O)c2c(O)c(=O)c(C(=O)NCc3ccc(F)cc3F)cn2CC12CCOC2` (single isomer, unassigned) [Compound 57], the IC50 is 36 nM under setting [4] and 1.6 nM under setting [5].

Regarding `CCN1C(=O)c2c(O)c(=O)c(C(=O)NCc3ccc(F)cc3F)cn2N(C)C12CCNCC2` [Compound 173], the IC50 is 52 nM under setting [4] and 3.2 nM under setting [5].

As to `CCOCCN1C(=O)c2c(O)c(=O)c(C(=O)NCc3ccc(F)cc3F)cn2N(C)C12CCOC2` (single isomer, unassigned) [Compound 126], the IC50 under setting [1] came out at 455 nM and the IC50 under setting [2] was 1.3 nM.

Turning to `CN1C(=O)c2c(O)c(=O)c(C(=O)NCc3cccc(Cl)c3F)cn2N(C)C12COCC2(C)C` (single isomer, unassigned) [Compound 127], the IC50 by setting is: under setting [4], 134 nM; under setting [5], 1 nM.

For `CN1C(=O)c2c(O)c(=O)c(-c3nnc(Cc4ccc(F)cc4F)s3)cn2N(C)C12CCN(c1ccccn1)CC2` [Compound 30], the IC50 under setting [4] was determined as 280 nM and the IC50 under setting [5] was 38.5 nM.

Take `COCN1C(=O)c2c(O)c(=O)c(C(=O)NCc3ccc(F)cc3F)cn2CC12CCOC2` (single isomer, unassigned) [Compound 76]: the IC50 reads like this: under setting [1], 151 nM; under setting [2], 2.4 nM.

Turning to `CN1C(=O)c2c(O)c(=O)c(C(=O)NCc3ccc(F)cc3F)cn2CC12CCOC2` (single isomer, unassigned) [Compound 58], the IC50 amounted to 5 nM under setting [3], 27 nM under setting [1] and 1.9 nM under setting [2].

`CN1C(=O)c2c(O)c(=O)c(C(=O)NCc3cccc(Cl)c3F)cn2N(C)C12CCOC2` (single isomer, unassigned) [Compound 110]: under setting [1], the IC50 was 121 nM.

On to `CN1C(=O)c2c(O)c(=O)c(C(=O)NCc3ccc(F)cc3F)cn2N(CCCC(F)(F)F)C12CCOC2` (single isomer, unassigned) [Compound 165], for which, under setting [1], the IC50 stood at 146 nM.
